In PMC3362798 (Bioorganic & medicinal chemistry letters, 2012):
Read-outs that look alike come from different tables or passages of the source.

How the values were obtained:
[1] = tested on: NPY Y2; conditions: NPY Y2 antagonist; cited from earlier work
[2] = tested on: rats; conditions: intracerebroventricular (icv) administration; cited from earlier work
[3] = tested on: mice; conditions: intracerebroventricular (icv) administration; cited from earlier work
[4] = cited from earlier work
[5] = molecular target: T1, NPY Y2 receptor (Homo sapiens, UniProt P49146); assay: cAMP biosensor assay, NPY Y2 receptor antagonism; type: cell-based; conditions: for fold increase in potency compared to SF-11: more potent than SF-11
T1 sequence (P49146 1-381): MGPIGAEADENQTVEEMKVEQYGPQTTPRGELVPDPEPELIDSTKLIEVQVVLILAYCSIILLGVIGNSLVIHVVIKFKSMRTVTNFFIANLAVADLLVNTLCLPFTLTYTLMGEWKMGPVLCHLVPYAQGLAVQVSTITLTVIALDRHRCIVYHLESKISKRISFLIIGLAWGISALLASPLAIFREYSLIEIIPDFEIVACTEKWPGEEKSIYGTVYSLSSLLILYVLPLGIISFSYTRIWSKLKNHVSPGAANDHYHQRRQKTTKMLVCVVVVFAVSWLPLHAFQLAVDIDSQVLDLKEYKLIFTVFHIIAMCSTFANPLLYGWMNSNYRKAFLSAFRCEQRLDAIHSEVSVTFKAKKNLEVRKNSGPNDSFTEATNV

[6] = tested on: NPY Y1 and 38 off-target receptors, including GPCRs, transporters and ion-channels; conditions: cited from earlier work

N=C(N)NCCC[C@H](NC(=O)CC1(CC(=O)N2CCN(C3c4ccccc4NC(=O)c4ccccc43)CC2)CCCC1)C(=O)NCCn1c(=O)n(-c2ccccc2)n(-c2ccccc2)c1=O (stereo partly shown) [BIIE0246]
IC50 [1]: 3.3 nM | ethanol consumption [2]: decreased ethanol consumption | antidepressant-like effects [3]: induced antidepressant-like effects | brain penetration ([4]; BIIE0246): poor brain penetration

OC(c1ccccc1)(c1ccccc1)C1CCN(C(=S)Nc2ccccc2)CC1 [Compound 1]
NPY Y2 antagonist activity (in words) [5]: complete loss of activity

CCN(CC)c1ccc(NC(=S)N2CCC(C(O)(c3ccccc3)c3ccccc3)CC2)cc1 [Compound 8]
fold increase in potency compared to SF-11 [5]: ~3 fold

CCN(CC)C(=O)c1ccc(NC(=S)N2CCC(C(O)(c3ccccc3)c3ccccc3)CC2)cc1 [Compound 15]
fold more potent than N,N-dimethylamide analogue 14 ([5]; compared with 14): 4 fold

CN(C)S(=O)(=O)c1ccc(NC(=S)N2CCC(C(O)(c3ccccc3)c3ccccc3)CC2)cc1 [Compound 16]
fold increase in potency compared to SF-11 [5]: 10 fold

CCOC(=O)c1cccc(NC(=S)N2CCC(C(O)(c3ccccc3)c3ccccc3)CC2)c1 [Compound 22]
NPY Y2 antagonist activity (in words) [5]: partial antagonism

CCOc1ccc(NC(=S)N2CCC(C(O)(c3ccccc3)c3ccccc3)CC2)c(C)c1 [Compound 27]
NPY Y2 antagonist activity (in words) [5]: complete loss of activity

CCOc1ccc(NC(=S)N2CCC(C(O)(c3ccccc3)c3ccccc3)CC2)c(C(F)(F)F)c1 [Compound 28]
NPY Y2 antagonist activity (in words) [5]: complete loss of activity

OC(c1ccccc1)(c1ccccc1)C1CCN(C(=S)Nc2ccc(C(F)(F)F)cc2Cl)CC1 [Compound 29]
NPY Y2 antagonist activity (in words) [5]: complete loss of activity

CCOc1ccc(NC(=S)N2CCC(C(O)(c3ccccc3)c3ccccc3)CC2)c(F)c1 [Compound 30]
fold less potent than SF-11 ([5]; less potent than SF-11): ~7 fold

COC(c1ccccc1)(c1ccccc1)C1CCN(C(=S)Nc2ccc(S(=O)(=O)N(C)C)cc2)CC1 [Compound 35]
NPY Y2 antagonist activity (in words) [5]: no activity

CCOc1ccc(NC(=S)N2CCN(C(c3ccccc3)c3ccccc3)CC2)cc1 [Compound 36]
NPY Y2 antagonist activity (in words) [5]: retained the activity

CCOc1ccc(NC(=S)N2CCC(C(O)(c3ccccc3)C3CCCCC3)CC2)cc1 (stereo not shown) [Compound 38]
NPY Y2 antagonist activity (in words) [5]: complete loss of activity

CN(C)S(=O)(=O)c1ccc(NC(=S)N2CCN(C3c4ccccc4CCc4ccccc43)CC2)cc1 [Compound 45]
NPY Y2 antagonist activity (in words) [5]: inactive

CCN(CC)C(=O)c1ccc(OC(=O)N2CCC(C(O)(c3ccccc3)c3ccccc3)CC2)cc1 [Compound 60]
fold less potent than N,N-diethyl sulfonamide analogue 54 ([5]; compared with 54): 18 fold

CC(=O)Nc1ccc(OC(=O)N2CCC(C(O)(c3ccccc3)c3ccccc3)CC2)cc1 [Compound 61]
NPY Y2 antagonist activity (in words) [5]: completely lost the activity

CCC(=O)Nc1ccc(OC(=O)N2CCC(C(O)(c3ccccc3)c3ccccc3)CC2)cc1 [Compound 62]
NPY Y2 antagonist activity (in words) [5]: completely lost the activity

CS(=O)(=O)Nc1ccc(OC(=O)N2CCC(C(O)(c3ccccc3)c3ccccc3)CC2)cc1 [Compound 63]
NPY Y2 antagonist activity (in words) [5]: retained the antagonist activity

CCN(CC)C(=O)c1cccc(OC(=O)N2CCC(C(O)(c3ccccc3)c3ccccc3)CC2)c1 [Compound 64]
NPY Y2 antagonist activity (in words) [5]: no activity

CCN(CC)S(=O)(=O)c1cccc(OC(=O)N2CCC(C(O)(c3ccccc3)c3ccccc3)CC2)c1 [Compound 65]
NPY Y2 antagonist activity (in words) [5]: no activity

CCOc1ccc(NC(=S)N2CCC(C(O)(c3ccccc3)c3ccccc3)CC2)cc1 [SF-11, N-(4-ethoxyphenyl)-4-[hydroxy(diphenyl)methyl]piperidine-1-carbothioamide]
selectivity against NPY Y1 and 38 off-target receptors [6]: selective | brain penetration ([4]; HTS hit chemotypes): brain-penetrant

Cc1ccc(C)c(NS(=O)(=O)c2cc(C(=O)Nc3ccccc3-c3ccccc3)ccc2C)c1 [SF-21]
selectivity against NPY Y1 and 38 off-target receptors [6]: selective | brain penetration ([4]; HTS hit chemotypes): brain-penetrant

COc1cccc(-c2nc(-c3ccc(NC(=O)Cc4ccccc4OC)cc3)no2)c1 [SF-31]
selectivity against NPY Y1 and 38 off-target receptors [6]: selective | brain penetration ([4]; HTS hit chemotypes): brain-penetrant

Cc1ccc(S(=O)(=O)C(c2ccccc2)c2c(C)noc2C)cc1 (stereo not shown) [SF-41]
selectivity against NPY Y1 and 38 off-target receptors [6]: selective | brain penetration ([4]; HTS hit chemotypes): brain-penetrant
